Laboratory results from the PolyMetriX glass transition set.

Work on `*O[Si](*)(C)CCCOC(=O)c1cc(OC(=O)c2ccc(OCCOCCOCCOCCOCCOCCOC)cc2)ccc1OC(=O)c1ccc(OCCOCCOCCOCCOCCOCCOC)cc1` (repeat unit) yielded a glass transition temperature of -46.00 °C. `*C1CCC(CC2CCC(N3C(=O)c4ccc(-c5ccc6c(c5)C(=O)N(*)C6=O)cc4C3=O)C(C)C2)CC1C` (repeat unit) showed a glass transition temperature of 260.00 °C. `*CC(*)OC(=O)c1cccc([N+](=O)[O-])c1` (repeat unit) gave a glass transition temperature of 93.00 °C. Compound `*CC(*)C(=O)c1ccc(C(C)(C)C)cc1` (repeat unit) has a glass transition temperature of 103.50 °C. In the case of `*Oc1ccc(Oc2ccc(NC(=C(C#N)C#N)c3ccc(C(Nc4ccc(*)cc4)=C(C#N)C#N)cc3)cc2)cc1` (repeat unit), the glass transition temperature is reported as 255.00 °C. `*Oc1ccc(S(=O)(=O)c2ccc(Oc3ccc(C(c4ccc(*)cc4)C(C)C)cc3)cc2)cc1` (repeat unit) showed a glass transition temperature of 200.00 °C. With `*CC(*)c1ccc(COCCOCCCCCCCC)cc1` (repeat unit) the glass transition temperature was -42.00 °C. `*C(=O)c1ccc2c(c1)C(=O)N(c1cccc(C(=O)Nc3ccc(N4C(=O)c5ccc(*)cc5C4=O)cc3)c1)C2=O` (repeat unit) gave a glass transition temperature of 308.00 °C. Compound `*c1ccc(S(=O)(=O)c2ccc(N3C(=O)c4ccc(Oc5ccc(Oc6ccc7c(c6)C(=O)N(*)C7=O)cc5)cc4C3=O)cc2)cc1` (repeat unit) has a glass transition temperature of 283.00 °C. In the case of `*CCCCCCCCCC[N+](*)(C)C` (repeat unit), the glass transition temperature is reported as 65.90 °C. `*Sc1ccc(C(=O)CNCCCCCCCCNCC(=O)c2ccc(*)cc2)cc1` (repeat unit) showed a glass transition temperature of 231.00 °C. `*c1cccc(P(=O)(c2ccccc2)c2cccc(N3C(=O)c4ccc(Oc5ccc6c(c5)C(=O)N(*)C6=O)cc4C3=O)c2)c1` (repeat unit) gave a glass transition temperature of 251.00 °C. Work on `*Oc1ccc(NC(=O)CCCCCCCCC(=O)Nc2ccc(*)cc2)cc1` (repeat unit) yielded a glass transition temperature of 160.00 °C. `*Oc1ccc(C(C)(C)c2ccc(Oc3ccc(C(=O)Nc4ccc(-c5ccc(NC(=O)c6ccc(*)cc6)cc5C(F)(F)F)c(C(F)(F)F)c4)cc3)cc2)cc1` (repeat unit) gave a glass transition temperature of 250.00 °C. Work on `*Oc1c(F)c(F)c(-c2c(F)c(F)c(Oc3ccc(C(c4ccc(*)cc4)(C(F)(F)F)C(F)(F)F)cc3)c(F)c2F)c(F)c1F` (repeat unit) yielded a glass transition temperature of 167.00 °C. `*C(=O)Nc1cccc(NC(=O)c2ccc(N3C(=O)c4ccc(*)cc4C3=O)cc2)c1` (repeat unit) gave a glass transition temperature of 240.00 °C. `*c1ccc(Oc2ccc(-c3nc4cc(Oc5ccc(NC(=O)CN6C(=O)c7ccc(C(c8ccc9c(c8)C(=O)N(CC(=O)Nc8ccc(Oc%10ccc%11nc(-c%12ccccc%12)c(*)nc%11c%10)cc8)C9=O)(C(F)(F)F)C(F)(F)F)cc7C6=O)cc5)ccc4nc3-c3ccccc3)cc2)cc1` (repeat unit) gave a glass transition temperature of 260.00 °C. With `*c1cccc(NC(=O)c2cccc(C(=O)Nc3cccc(-n4c(=O)c5cc6c(=O)n(*)c(=O)c6cc5c4=O)c3)c2)c1` (repeat unit) the glass transition temperature was 338.00 °C. Compound `*Oc1ccc(CC(NC(=O)CCc2ccc(OC(=O)CCCC(*)=O)cc2)C(=O)OCCCC)cc1` (repeat unit) has a glass transition temperature of 56.00 °C. Work on `*c1ccc(-c2ccc(-c3ccc(-c4cc(-c5ccccc5)c5cc(-c6ccc7nc(*)cc(-c8ccccc8)c7c6)ccc5n4)cc3)cc2)cc1` (repeat unit) yielded a glass transition temperature of 360.00 °C. Work on `*OP(=O)(Oc1ccc(C(C)(C)c2ccc(*)cc2)cc1)OC1CCCCC1` (repeat unit) yielded a glass transition temperature of 86.00 °C. Compound `*CC(*)C(=O)OCCCCCCCCCCCOc1ccc(C(=O)Oc2ccc(-c3ccc(OC(C)CCCCCC)cc3)cc2)cc1` (repeat unit) has a glass transition temperature of 50.00 °C. For `*c1cc(CC(=O)OCCCCCCOc2ccc(/N=N/c3ccc(C#N)cc3)cc2)c(*)s1` (repeat unit), the glass transition temperature was 64.00 °C. In the case of `*Oc1ccc(Oc2ccc(C(=O)Nc3ccc(Cc4ccc(NC(=O)c5ccc(*)cc5)cc4)cc3)cc2)cc1` (repeat unit), the glass transition temperature is reported as 216.00 °C. In the case of `*CC(*)c1cc(C(=O)OCCCCCCCCCC)ccc1-c1ccc(OCCCCCCCC)cc1` (repeat unit), the glass transition temperature is reported as 44.00 °C. With `*CC(*)OC(=O)C1(C)CCCCC1` (repeat unit) the glass transition temperature was 86.00 °C. Compound `*c1ccc(Oc2ccc(C(=O)c3cccc(C(=O)c4ccc(Oc5ccc(-c6nc(-c7cccc(-c8nc(*)c(-c9ccccc9)[nH]8)c7)[nH]c6-c6ccccc6)cc5)cc4)c3)cc2)cc1` (repeat unit) has a glass transition temperature of 256.50 °C. For `*Nc1ccc(CC(C)(C)NC(=O)CCCCCCCCC(*)=O)cc1` (repeat unit), the glass transition temperature was 92.00 °C. With `*c1ccc(Oc2ccc(N3C(=O)c4ccc(Oc5ccc6ccc(Oc7ccc8c(c7)C(=O)N(*)C8=O)cc6c5)cc4C3=O)cc2)cc1` (repeat unit) the glass transition temperature was 245.00 °C. Compound `*N(C)[Si](C)(C=C)N(C)[Si](*)(C)C` (repeat unit) has a glass transition temperature of -42.00 °C. `*c1ccc(-c2cc(-c3ccc(OCC(CC)CCCC)cc3)cc(-c3ccc(-c4ccc5c(c4)C(CCCCCC)(CCCCCC)c4cc(*)ccc4-5)cc3)c2-c2ccc(OCC(CC)CCCC)cc2)cc1` (repeat unit) showed a glass transition temperature of 110.00 °C. Work on `*c1ccc(Oc2ccc(C(c3ccc(Oc4ccc(-c5nnc(*)n5-c5cccc(C(F)(F)F)c5)cc4)cc3)(C(F)(F)F)C(F)(F)F)cc2)cc1` (repeat unit) yielded a glass transition temperature of 185.00 °C. With `*CC(*)(C)C(=O)OCc1ccc[se]1` (repeat unit) the glass transition temperature was 56.00 °C. Work on `*Oc1ccc(P(C)(=O)c2ccc(Oc3ccc(P(=O)(c4ccccc4)c4ccc(*)cc4)cc3)cc2)cc1` (repeat unit) yielded a glass transition temperature of 238.00 °C. `*NC(CCC(=O)OCc1ccc(F)cc1)C(*)=O` (repeat unit) gave a glass transition temperature of 46.90 °C. `*Oc1ccc(NC(=O)c2cc(NC(=O)CCCN3C(=O)c4ccccc4C3=O)cc(C(=O)Nc3ccc(*)cc3)c2)cc1` (repeat unit) gave a glass transition temperature of 225.00 °C. For `*C1C(=O)N(c2cc(Br)c(O[Si](CC)(CC)CC)c(Br)c2)C(=O)C1*` (repeat unit), the glass transition temperature was 160.00 °C. For `*Oc1ccc(NC(=C(C#N)C#N)c2ccc(C(Nc3ccc(*)cc3)=C(C#N)C#N)cc2)cc1` (repeat unit), the glass transition temperature was 274.00 °C. For `*COc1ccc(C(c2ccc(OCC3(*)COC3)cc2)(C(F)(F)F)C(F)(F)F)cc1` (repeat unit), the glass transition temperature was 134.00 °C. For `*c1cccc(C(=O)Nc2ccc(Oc3ccc(Oc4ccc(Oc5ccc(NC(=O)c6cccc(N7C(=O)c8ccc(-c9ccc%10c(c9)C(=O)N(*)C%10=O)cc8C7=O)c6)cc5)cc4)cc3)cc2)c1` (repeat unit), the glass transition temperature was 244.00 °C. `*CCN(*)C(=O)c1cc(F)cc(F)c1F` (repeat unit) gave a glass transition temperature of 110.00 °C. For `*C(=O)NCCN(CCNC(=O)c1cccc(N2C(=O)c3ccc(*)cc3C2=O)c1)c1ccc(/C=C/c2ccc([N+](=O)[O-])cc2)cc1` (repeat unit), the glass transition temperature was 178.00 °C. Work on `*/C(C)=C(/*)CCCCC` (repeat unit) yielded a glass transition temperature of 180.00 °C. With `*Oc1ccc(C(=O)OCCOCCOC(=O)c2ccc(OC(*)=O)cc2)cc1` (repeat unit) the glass transition temperature was 51.00 °C. Compound `*c1ccc2oc(-c3ccc(Oc4ccc(C(c5ccc(Oc6ccc(-c7nc8cc(C(*)(C(F)(F)F)C(F)(F)F)ccc8o7)cc6)cc5)(C(F)(F)F)C(F)(F)F)cc4)cc3)nc2c1` (repeat unit) has a glass transition temperature of 255.00 °C. `*CCCP(CCCNC(=O)CCCCC(=O)N*)CC(C)C` (repeat unit) showed a glass transition temperature of 71.00 °C. `*/C=C/c1ccc2c(c1)C(CCCCCCOc1ccc3ccc(=O)oc3c1)(CCCCCCOc1ccc3ccc(=O)oc3c1)c1cc(/C=C/c3ccc4c(c3)C(CCCCCC)(CCCCCC)c3cc(*)ccc3-4)ccc1-2` (repeat unit) showed a glass transition temperature of 115.00 °C. In the case of `*c1ccc(OCCN(CC)c2ccc(-c3ccc(C(=C(C#N)C#N)c4ccc(-c5ccc(N(CC)CC)cc5)s4)s3)cc2)c(-c2cc(-c3ccccc3)c3cc(Oc4ccc5nc(*)cc(-c6ccccc6)c5c4)ccc3n2)c1` (repeat unit), the glass transition temperature is reported as 205.00 °C. With `*Oc1ccc(C(=O)Nc2cc(NC(=O)c3ccc(*)cc3)cc(C(=O)OCCOC(=O)/C=C/c3ccc(N(C)C)cc3)c2)cc1` (repeat unit) the glass transition temperature was 182.00 °C. Work on `*c1ccc(Oc2ccc(-n3nccc3-c3cccc(-c4ccnn4*)c3)cc2)cc1` (repeat unit) yielded a glass transition temperature of 216.00 °C.

Remark: another data set of the same source
For `*Oc1cccc(C(=O)c2ccc(Oc3cccc4c3C(=O)N(c3cccc(N5C(=O)c6cccc(*)c6C5=O)c3)C4=O)cc2)c1` (repeat unit), the glass transition temperature was 248.00 °C. Work on `*Oc1ccc(Oc2ccc(Oc3cccc4c3C(=O)N(CCCCCCCCN3C(=O)c5cccc(*)c5C3=O)C4=O)cc2)cc1` (repeat unit) yielded a glass transition temperature of 128.00 °C. With `*c1ccc2c(c1)C(=O)N(c1ccc(Cc3ccc(N4C(=O)c5ccc(*)cc5C4=O)c(C)c3C)c(C)c1C)C2=O` (repeat unit) the glass transition temperature was 297.00 °C. `*c1ccc2c(c1)C(=O)N(c1ccc(-c3ccc(N4C(=O)c5ccc(C(*)(C(F)(F)F)C(F)(F)F)cc5C4=O)cc3-c3ccccc3C(F)(F)F)c(-c3ccccc3C(F)(F)F)c1)C2=O` (repeat unit) showed a glass transition temperature of 289.00 °C. Work on `*Oc1ccc2c(c1)C(=O)N(c1ccc(C(=O)c3ccc(N4C(=O)c5ccc(*)cc5C4=O)cc3)cc1)C2=O` (repeat unit) yielded a glass transition temperature of 274.00 °C. With `*Oc1cccc2c1C(=O)N(c1cccc(S(=O)(=O)c3cccc(N4C(=O)c5cccc(*)c5C4=O)c3)c1)C2=O` (repeat unit) the glass transition temperature was 241.00 °C. Compound `*c1ccc2c(c1)C(=O)N(c1ccc(N3C(=O)c4ccc(C(*)(C(F)(F)F)C(F)(F)F)cc4C3=O)cc1C(F)(F)F)C2=O` (repeat unit) has a glass transition temperature of 366.00 °C. `*Oc1cccc(C(C)(C)c2ccc(Oc3cccc4c3C(=O)N(c3cccc(N5C(=O)c6cccc(*)c6C5=O)c3)C4=O)cc2)c1` (repeat unit) showed a glass transition temperature of 236.00 °C. Work on `*c1ccc(-c2ccc(N3C(=O)c4cc5c(cc4C3=O)C(c3ccccc3)(C(F)(F)F)c3cc4c(cc3O5)C(=O)N(*)C4=O)cc2C(F)(F)F)c(C(F)(F)F)c1` (repeat unit) yielded a glass transition temperature of 400.00 °C.
